# Measured values as given in PubChem BioAssay AID1224920 (Broad Institute, 2016).
# The source made the active and inactive calls.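 The calls were made as follows: active = IC50 no higher than ten times the top tested dose; inconclusive = flat fit with 30 to 70% inhibition, or poor fit; inactive = IC50 above ten times the top dose.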
# Test: growth modulation of Clostridium difficile isolate – OD600, 9-point, retest, dose response (AID 1224920);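 also: plate controls were DMSO for no effect and levofloxacin control for full effect; inhibitors lower culture turbidity so OD600 falls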
# Conditions: Clostridium difficile clinical isolate growth, OD600, 24 h
SMILES,"activity change, negative = inhibition (at 120 µM (top of the series))",other results
O=C(Nc1ccc(F)cc1)N1CCCCN2[C@H](C1)[C@@H](c1ccc(-c3cccc(F)c3)cc1)[C@@H]2CO,43.3% (inactive),–
O=C(C1CCCC1)N1C[C@@H]2N[C@H](C1)C2c1ccc(-c2ccccc2F)cc1 (stereo partly drawn),–,"activity change, negative = inhibition (at 60 µM (top of the series)): 51.8% (inactive)"
CC(=O)N(C)C[C@@H]1[C@@H](c2ccc(-c3ccccc3F)cc2)[C@H](CO)N1C(C)=O,-14.3% (inactive),–
CC(=O)N(C)C[C@H]1[C@H](c2ccc(-c3ccccc3F)cc2)[C@H](CO)N1C(C)=O,-3.85% (inactive),–
COc1cccc(-c2ccc3c(c2)[C@@H]2[C@@H](CCN2C(=O)Nc2ccccc2OC)[C@@H](CO)N3C)c1,–,"activity change, negative = inhibition (at 135 µM (top of the series)): -19.3% (inactive)"
Cc1cccc(-c2ccc(C3[C@@H]4CN(C(=O)C5CCC5)C[C@H]3N4)cc2)c1 (stereo partly drawn),–,"activity change, negative = inhibition (at 60 µM (top of the series)): 39.3% (inactive)"
O=C(C[C@@H]1CC[C@@H]2[C@H](COC[C@@H](O)CN2S(=O)(=O)c2ccccc2)O1)NCc1ccc(-c2ccccc2)cc1,43.8% (inactive),–
Cc1cccc(-c2ccc(C3[C@@H]4CN(C(=O)Cc5ccncc5)C[C@H]3N4)cc2)c1 (stereo partly drawn),–,"activity change, negative = inhibition (at 60 µM (top of the series)): 39.4% (inactive)"
C/C=C/c1ccc([C@H]2[C@@H](CNC(C)C)N(c3nc(CC)cs3)[C@H]2CO)cc1,–,"activity change, negative = inhibition (at 135 µM (top of the series)): 32.5% (inactive)"
C[C@H]1CN([C@@H](C)CO)C(=O)c2cccc(NC(=O)Nc3ccc(C(F)(F)F)cc3)c2O[C@@H]1CN(C)C(=O)Nc1ccc(C(F)(F)F)cc1,–,"activity change, negative = inhibition (at 135 µM (top of the series)): 33.9% (inactive)"
COc1ccc2c3c(n(C)c2c1)[C@@H](CO)N(C(=O)c1ccncc1)CC31CN(C)C1,3.53% (inactive),–
CC(=O)N1[C@H](CO)[C@@H](c2ccccc2)[C@@H]1CN(C)C(=O)CN1CCOCC1,-9.56% (inactive),–
CC(=O)N(C)C[C@@H]1[C@@H](c2ccc(-c3ccccc3F)cc2)[C@@H](CO)N1C(C)=O,–,"activity change, negative = inhibition (at 135 µM (top of the series)): -15.6% (inactive)"
COc1ccc2c3c(n(C)c2c1)[C@H](CO)N(C(=O)c1cccnc1)CC31CCN(C(=O)c2cccnc2)CC1,0.941% (inactive),–
Cc1ccccc1-c1ccc(C2[C@@H]3CN(C(=O)C4CCCC4)C[C@H]2N3)cc1 (stereo partly drawn),–,"activity change, negative = inhibition (at 60 µM (top of the series)): 34.2% (inactive)"
COc1ccc2c3c(n(C)c2c1)[C@H](CO)N(C(=O)Nc1ccc(F)cc1)CC31CCN(C(=O)CN2CCOCC2)CC1,–,"activity change, negative = inhibition (at 135 µM (top of the series)): -1.31% (inactive)"
O=C(Nc1ccc(F)cc1)N1CCCCN2[C@H](CO)[C@@H](c3ccc(-c4cccc(F)c4)cc3)[C@@H]2C1,48.5% (inactive),–

SMILES,"activity change, negative = inhibition (at 120 µM (top of the series))",other results
CN(C)C(=O)C[C@@H]1CC[C@@H]2[C@@H](COc3ccc(NC(=O)C4CCC4)cc3C(=O)N2C)O1,0.255% (inactive),–
C[C@@H]1CN([C@@H](C)CO)C(=O)Cc2cc(NS(=O)(=O)c3ccccc3)ccc2O[C@@H]1CN(C)Cc1ccc(Oc2ccccc2)cc1,39.5% (inactive),–
CC(=O)N(C)C[C@H]1[C@H](c2ccc(-c3ccccc3F)cc2)[C@@H](CO)N1C(C)=O,-11.8% (inactive),–
C[C@H]1CN([C@@H](C)CO)C(=O)c2cccc(NC(=O)c3nc4ccccc4s3)c2O[C@H]1CN(C)S(=O)(=O)c1ccc(F)cc1,–,"activity change, negative = inhibition (at 60 µM (top of the series)): 0.765% (inactive)"
N#Cc1cccc(-c2ccc(C3[C@@H]4CN(S(=O)(=O)Cc5ccccc5)C[C@H]3N4)cc2)c1 (stereo partly drawn),–,"activity change, negative = inhibition (at 60 µM (top of the series)): 29.4% (inactive)"
CCCNC(=O)N1[C@H](C#N)[C@@H](c2ccccc2-c2ccc(C)cc2)[C@@H]1CO,17% (inactive),–
COc1ccc2c3c(n(C)c2c1)[C@H](CO)N(C(=O)Cc1ccccc1)CC31CCN(C)CC1,8.89% (inactive),–
O=C(Nc1ccccc1)N1CCCCN2[C@H](CO)[C@H](c3ccc(-c4ccccc4F)cc3)[C@H]2C1,–,"activity change, negative = inhibition (at 30 µM (top of the series)): 38.6% (inactive)"
COc1ccc(NC(=O)N2CC[C@H]3[C@@H]2c2cc(Br)ccc2N(C)[C@H]3CO)cc1,–,"activity change, negative = inhibition (at 135 µM (top of the series)): 4.83% (inactive)"
O=C(c1ccc2c(c1)OCO2)N1C[C@@H]2N[C@H](C1)C2c1ccc(-c2ccccc2F)cc1 (stereo partly drawn),–,"activity change, negative = inhibition (at 68 µM (top of the series)): 31.1% (inactive)"
N#C[C@@H]1[C@@H](c2ccccc2-c2cccc(F)c2)[C@H](CO)N1C(=O)NC1CCCCC1,9.02% (inactive),–
COc1ccc(-c2ccccc2[C@@H]2[C@@H](C#N)N(C(=O)NC3CCCC3)[C@H]2CO)cc1,–,"activity change, negative = inhibition (at 68 µM (top of the series)): -5% (inactive)"
CN(C)C(=O)C[C@H]1C=C[C@H](NC(=O)C2CCOCC2)[C@H](CO)O1,-14.4% (inactive),–
Cc1ccc(S(=O)(=O)Nc2cccc3c2O[C@@H](CN(C)S(=O)(=O)c2ccccc2)[C@H](C)CN([C@H](C)CO)C3=O)cc1,-24.7% (inactive),–
C/C=C/c1ccc(C2[C@@H]3CN(Cc4cccc(OC)c4)C[C@H]2N3)cc1 (stereo partly drawn),–,"activity change, negative = inhibition (at 60 µM (top of the series)): 20.9% (inactive)"
CN1c2ccc(-c3cccc(F)c3)cc2[C@@H]2[C@@H](CCN2C(=O)C2CCCC2)[C@@H]1CO,34.7% (inactive),–
